# pIC50: −log10 of the molar value.
# What was measured:
# [1] = molecular target: T1, HIF-2α (Homo sapiens, UniProt Q99814); assay: HIF-2α Luciferase Reporter Assay (serum), HRE-luciferase 786-0 cells in 100% human serum; format: cell-based; details: for pIC50: 100% human serum, 786-0 reporter cells, overnight incubation, read-out: Serum Potency; for Serum Shift (approximate): ratio of IC50 in 100% serum to IC50 in serum free conditions
# Outline: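 786-0 cells stably expressing an HRE-luciferase reporter were plated and rested 3 h. They were then treated overnight at 37 °C with compound diluted in 100% human serum. Serum was replaced with Opti-MEM, ONE-Glo luminescence was read, and IC50 came from a 4-parameter logistic fit.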
# [2] = molecular target: T1, HIF-2α; assay: HIF-2α Luciferase Reporter Assay (serum free) in HIF-Luc-786-0 cells; format: cell-based; details: Opti-MEM, 786-0 reporter cells, 20 hours incubation
# Outline: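 786-0 cells stably transduced with HIF luciferase reporter, 20,000 cells/well in serum-free Opti-MEM, compounds (50 uM downward, 1% DMSO) 20 h at 37 °C. ONE-Glo luminescence normalized to DMSO and no-cell controls; IC50 from four-parameter fit.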
# T1 sequence (Q99814 whole entry): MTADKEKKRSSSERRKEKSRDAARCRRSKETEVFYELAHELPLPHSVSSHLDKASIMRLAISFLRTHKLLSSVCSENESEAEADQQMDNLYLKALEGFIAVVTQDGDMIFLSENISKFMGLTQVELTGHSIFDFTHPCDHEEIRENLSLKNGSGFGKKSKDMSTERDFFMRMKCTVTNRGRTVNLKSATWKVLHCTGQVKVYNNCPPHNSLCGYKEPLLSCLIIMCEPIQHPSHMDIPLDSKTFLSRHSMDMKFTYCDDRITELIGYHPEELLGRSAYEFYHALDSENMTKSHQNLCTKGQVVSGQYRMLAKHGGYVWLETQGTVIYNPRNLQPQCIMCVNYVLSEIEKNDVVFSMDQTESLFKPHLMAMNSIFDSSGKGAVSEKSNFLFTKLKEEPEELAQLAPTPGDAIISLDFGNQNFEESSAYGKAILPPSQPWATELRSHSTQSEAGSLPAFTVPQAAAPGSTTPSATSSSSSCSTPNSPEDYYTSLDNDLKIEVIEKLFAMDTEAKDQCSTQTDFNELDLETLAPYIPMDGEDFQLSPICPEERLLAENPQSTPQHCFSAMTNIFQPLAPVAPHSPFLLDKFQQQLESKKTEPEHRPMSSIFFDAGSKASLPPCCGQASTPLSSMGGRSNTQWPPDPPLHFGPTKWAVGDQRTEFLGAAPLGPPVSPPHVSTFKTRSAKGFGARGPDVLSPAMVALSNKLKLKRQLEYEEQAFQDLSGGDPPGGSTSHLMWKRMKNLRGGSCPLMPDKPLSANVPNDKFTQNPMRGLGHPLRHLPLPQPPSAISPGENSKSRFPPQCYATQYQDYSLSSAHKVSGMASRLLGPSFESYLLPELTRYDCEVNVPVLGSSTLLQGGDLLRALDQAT
Compound,pIC50 [1],Serum Shift (approximate) [1],pIC50 [2]
"O[C@H]1c2c(C(F)(F)F)nn(-c3ccc(Cl)c(F)c3)c2CC1(F)F [Example 119, (4S)-1-(4-chloro-3-fluorophenyl)-5,5-difluoro-3-(trifluoromethyl)-4,6-dihydrocyclopenta[c]pyrazol-4-ol]",< 6.00,73,> 7.00
"C[C@H](C#N)CCn1nc(C(F)(F)F)c2c1C[C@@H](F)[C@H]2O [Example 83, (2S)-4-[(4S,5R)-5-fluoro-4-hydroxy-3-(trifluoromethyl)-1H,4H,5H,6H-cyclopenta[c]pyrazol-1-yl]-2-methylbutanenitrile]",< 6.00,3,6.00 to 7.00
"[O-][S+](CCn1nc(C(F)(F)F)c2c1CCC(F)(F)[C@H]2O)C(F)F (stereo partly drawn) [Example 128, (4S)-1-[2-(difluoromethylsulfinyl)ethyl]-5,5-difluoro-3-(trifluoromethyl)-6,7-dihydro-4H-indazol-4-ol]",< 6.00,4,6.00 to 7.00
"C[C@H](C#N)CCn1nc(C(F)(F)F)c2c1CCC(F)(F)[C@H]2O [Example 100, (2S)-4-[(4S)-5,5-difluoro-4-hydroxy-3-(trifluoromethyl)-6,7-dihydro-4H-indazol-1-yl]-2-methylbutanenitrile]",< 6.00,4,6.00 to 7.00
"O[C@H]1c2c(C(F)(F)F)nn(CCCOC(F)(F)F)c2C[C@@H]1F [Example 63, (4S,5S)-5-fluoro-1-[3-(trifluoromethoxy)propyl]-3-(trifluoromethyl)-5,6-dihydro-4H-cyclopenta[c]pyrazol-4-ol]",< 6.00,4,6.00 to 7.00
"O[C@H]1c2c(C(F)(F)F)nn(CCc3ccoc3)c2CC1(F)F [Example 78, (4S)-5,5-difluoro-1-[2-(furan-3-yl)ethyl]-3-(trifluoromethyl)-1H,4H,5H,6H-cyclopenta[c]pyrazol-4-ol]",< 6.00,8,> 7.00
"O[C@H]1c2c(C(F)(F)F)nn(CCCOC(F)(F)F)c2[C@@H](F)CC1(F)F (single isomer, unassigned) [129/130 DIAST-1]",< 6.00,18,6.00 to 7.00
"CCO[C@H](CCn1nc(C(F)(F)F)c2c1CC(F)(F)[C@H]2O)C(F)(F)F [Example 101, (4S)-1-[(3R)-3-ethoxy-4,4,4-trifluorobutyl]-5,5-difluoro-3-(trifluoromethyl)-4,6-dihydrocyclopenta[c]pyrazol-4-ol]",< 6.00,11,> 7.00
"COC(C)CCn1nc(C(F)(F)F)c2c1CCC(F)(F)[C@H]2O (stereo partly drawn) [Example 13, (4S)-5,5-difluoro-1-(3-methoxybutyl)-3-(trifluoromethyl)-6,7-dihydro-4H-indazol-4-ol]",6.00 to 7.00,2,6.00 to 7.00
"CO[C@H](CCn1nc(C(F)(F)F)c2c1[C@@H](F)[C@@H](F)[C@H]2O)C(F)(F)F [Example 131, (4S,5S,6R)-5,6-difluoro-1-[(3R)-4,4,4-trifluoro-3-methoxybutyl]-3-(trifluoromethyl)-5,6-dihydro-4H-cyclopenta[c]pyrazol-4-ol]",> 7.00,2,> 7.00
O[C@H]1c2c(C(F)(F)F)nn(-c3ccc(F)c(F)c3)c2CC1(F)F [Example 115],< 6.00,45,6.00 to 7.00
"O[C@H]1c2c(C(F)(F)F)nn(CCc3ccco3)c2CC1(F)F [Example 77, (4S)-5,5-difluoro-1-[2-(furan-2-yl)ethyl]-3-(trifluoromethyl)-1H,4H,5H,6H-cyclopenta[c]pyrazol-4-ol]",< 6.00,10,> 7.00

# Continued, values first:
pIC50 [1],Serum Shift (approximate) [1],pIC50 [2],Compound
6.00 to 7.00,4,6.00 to 7.00,"O[C@H]1c2c(C(F)(F)F)nn(CCSC(F)F)c2CCC1(F)F [Example 18, (4S)-1-[2-(difluoromethylsulfanyl)ethyl]-5,5-difluoro-3-(trifluoromethyl)-6,7-dihydro-4H-indazol-4-ol]"
6.00 to 7.00,6,> 7.00,"O[C@H]1c2c(C(F)(F)F)nn([C@H]3C[C@@H](F)[C@@H](F)[C@@H](F)C3)c2CC1(F)F (mixture of isomers) [Example 88, (4S)-5,5-difluoro-1-[(3R,5S)-3,4,5-trifluorocyclohexyl]-3-(trifluoromethyl)-4,6-dihydrocyclopenta[c]pyrazol-4-ol]"
6.00 to 7.00,1,6.00 to 7.00,"C[C@H](OC(F)F)[C@H]1C[C@H](n2nc(C(F)(F)F)c3c2CC(F)(F)[C@H]3O)C1 [Example 106, (4S)-1-[3-[(1S)-1-(difluoromethoxy)ethyl]cyclobutyl]-5,5-difluoro-3-(trifluoromethyl)-4,6-dihydrocyclopenta[c]pyrazol-4-ol]"
< 6.00,23,6.00 to 7.00,"O[C@H]1c2c(C(F)(F)F)nn([C@@H]3CCC[C@H](C(F)(F)F)C3)c2CC1(F)F [Example 82, (4S)-5,5-difluoro-3-(trifluoromethyl)-1-[(1R,3S)-3-(trifluoromethyl)cyclohexyl]-1H,4H,5H,6H-cyclopenta[c]pyrazol-4-ol]"
< 6.00,9,> 7.00,"O[C@H]1c2c(C(F)(F)F)nn([C@H]3CC[C@@H](F)[C@@H](F)C3)c2CC1(F)F (racemic) [91 DIAST-2, (4S)-1-[(rel-1S,3S,4R)-3,4-difluorocyclohexyl]-5,5-difluoro-3-(trifluoromethyl)-4,6-dihydrocyclopenta[c]pyrazol-4-ol]"
6.00 to 7.00,7,> 7.00,"O[C@H]1c2c(C(F)(F)F)nn([C@@H]3C[C@H](F)C[C@H](F)C3)c2CC1(F)F [Example 89, (4S)-1-[(3R,5S)-3,5-difluorocyclohexyl]-5,5-difluoro-3-(trifluoromethyl)-4,6-dihydrocyclopenta[c]pyrazol-4-ol]"
< 6.00,9,6.00 to 7.00,"O[C@H]1c2c(C(F)(F)F)nn([C@H]3C[C@@H](F)[C@@H](F)[C@@H](F)C3)c2[C@@H](F)[C@H]1F [Example 143, (4S,5S,6R)-5,6-difluoro-1-[(3R,5S)-3,4,5-trifluorocyclohexyl]-3-(trifluoromethyl)-5,6-dihydro-4H-cyclopenta[c]pyrazol-4-ol]"
> 7.00,5,> 7.00,"O[C@H]1c2c(C(F)(F)F)nn([C@@H]3C[C@@H](F)[C@@H](F)[C@@H](F)C3)c2[C@H](F)C1(F)F (single isomer, unassigned) [146/147 DIAST-1]"
< 6.00,225,> 7.00,"O[C@H]1c2c(C(F)(F)F)nn([C@H]3CC[C@H](OC(F)F)C3)c2CC1(F)F (racemic) [Example 110, (4S)-1-[(1R,3R)-3-(difluoromethoxy)cyclopentyl]-5,5-difluoro-3-(trifluoromethyl)-1H,4H,5H,6H-cyclopenta[c]pyrazol-4-ol and (4S)-1-[(1S,3S)-3-(difluoromethoxy)cyclopentyl]-5,5-difluoro-3-(trifluoromethyl)-1H,4H,5H,6H-cyclopenta[c]pyrazol-4-ol]"
6.00 to 7.00,3,6.00 to 7.00,"O=S1(=O)CCCC(n2nc(C(F)(F)F)c3c2CC(F)(F)[C@H]3O)C1 (stereo partly drawn) [Example 86, 3-[(4S)-5,5-difluoro-4-hydroxy-3-(trifluoromethyl)-1H,4H,5H,6H-cyclopenta[c]pyrazol-1-yl]-1λ^6-thiane-1,1-dione]"
< 6.00,13,> 7.00,"O[C@H]1c2c(C(F)(F)F)nn(C3CC4(C3)CC(F)(F)C4)c2[C@@H](F)[C@@H]1F (single isomer, unassigned) [Example 134]"
< 6.00,5,6.00 to 7.00,"O[C@H]1c2c(C(F)(F)F)nn([C@H]3CCO[C@@H](C(F)(F)F)C3)c2[C@@H](F)[C@H]1F (single isomer, unassigned) [150/151 DIAST-1]"
6.00 to 7.00,7,> 7.00,"O[C@H]1c2c(C(F)(F)F)nn([C@@H]3CCCC(F)(F)C3)c2[C@@H](F)[C@H]1F (single isomer, unassigned) [136/137 DIAST-2]"
6.00 to 7.00,3,6.00 to 7.00,"O[C@H]1c2c(C(F)(F)F)nn(CCC3CC3(F)F)c2[C@@H](F)[C@H]1F (stereo partly drawn) [Example 152, (4S,5S,6R)-1-[2-(2,2-difluorocyclopropyl)ethyl]-5,6-difluoro-3-(trifluoromethyl)-5,6-dihydro-4H-cyclopenta[c]pyrazol-4-ol]"
< 6.00,11,6.00 to 7.00,"O[C@H]1c2c(C(F)(F)F)nn([C@H]3C[C@]4(CC4(F)F)C3)c2CC1(F)F [Example 65, (4S)-5,5-difluoro-1-[(3s,5s)-1,1-difluorospiro[2.3]hexan-5-yl]-3-(trifluoromethyl)-4,6-dihydrocyclopenta[c]pyrazol-4-ol]"
6.00 to 7.00,0,6.00 to 7.00,"O[C@H]1c2c(C(F)(F)F)nn([C@@H]3C[C@@H](F)[C@@H](F)[C@@H](F)C3)c2CC1(F)F [Example 70, (4S)-5,5-difluoro-1-[(3R,5S)-3,4,5-trifluorocyclohexyl]-3-(trifluoromethyl)-4,6-dihydrocyclopenta[c]pyrazol-4-ol]"

# From patent US12071411B2, “Inhibitors of HIF-2α and methods of use thereof” (ARCUS BIOSCIENCES, INC., priority 2021, dated 2024)
